Legend:
Assay in all cases: Bliss excess, mean over the matrix (fraction); higher = more synergy
UACC-62 (Melanoma) = system: UACC-62 (Melanoma)
Method in brief: (§1)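 Bliss excess equals the observed combination effect minus the expected value EA + EB − EA·EB, where EA and EB are the effects of each agent alone. Combination Emax is the second-highest inhibition within the matrix. Inhibition was scaled from CellTiter-Glo 2.0 luminescence, with 0 set by vehicle wells and 1 by blank wells, after 72 hours of two-drug dosing of cells plated in 1536-well plates.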

[1] = system: OVCAR-4 (Ovarian Carcinoma)
Method in brief: as §1

[2] = system: C-4-I (Cervical Carcinoma)
Method in brief: as §1

[3] = system: AMO-1 (Plasma Cell Myeloma)
Method in brief: as §1

[4] = system: SU8686 (Pancreatic Carcinoma)
Method in brief: as §1

[5] = system: NCI-H727 (Other Solid Carcinomas)
Method in brief: as §1

[6] = system: MLMA (Other Blood Carcinomas)
Method in brief: as §1

[7] = system: VA-ES-BJ (Other Solid Carcinomas)
Method in brief: as §1

PWR-1E (Non-Cancerous) = system: PWR-1E (Non-Cancerous)
Method in brief: as §1

[8] = system: MIA-PaCa-2 (Pancreatic Carcinoma)
Method in brief: as §1

[9] = system: SW13 (Other Solid Carcinomas)
Method in brief: as §1

[10] = system: BT-549 (Breast Carcinoma)
Method in brief: as §1

[11] = system: HGC-27 (Gastric Carcinoma)
Method in brief: as §1

EW-24 (Ewing's Sarcoma) = system: EW-24 (Ewing's Sarcoma)
Method in brief: as §1

[12] = system: EoL-1-cell (Acute Myeloid Leukemia)
Method in brief: as §1

D-263MG (Glioblastoma) = system: D-263MG (Glioblastoma)
Method in brief: as §1

[13] = system: RF-48 (B-Cell Non-Hodgkin's Lymphoma)
Method in brief: as §1

NB69 (Neuroblastoma) = system: NB69 (Neuroblastoma)
Method in brief: as §1

[14] = system: EFM-19 (Breast Carcinoma)
Method in brief: as §1

[15] = system: NCI-H1915 (Non-Small Cell Lung Carcinoma)
Method in brief: as §1

SMILES: COc1nnc2ccc(N3CCC(c4ccc(OCCN5CCN(C)C(=O)[C@H]5C)cc4)CC3)nn12 [AZD5153] + C=CCn1c(=O)c2cnc(Nc3ccc(N4CCN(C)CC4)cc3)nc2n1-c1cccc(C(C)(C)O)n1 [AZD1775] (first compound max 1 µM, partner max 1 µM)
- Bliss excess (UACC-62 (Melanoma)): -0.0529
- Bliss excess [1]: -0.0935
- Bliss excess [2]: -0.109
- Bliss excess [3]: -0.0881
- Bliss excess [4]: -0.0147
- Bliss excess [5]: -0.0299
- Bliss excess [6]: -0.107
- Bliss excess [7]: 0.0076
- Bliss excess (PWR-1E (Non-Cancerous)): -0.127
- Bliss excess [8]: -0.0019
- Bliss excess [9]: -0.0336
- Bliss excess [10]: -0.0585
- Bliss excess [11]: -0.0229
- Bliss excess (EW-24 (Ewing's Sarcoma)): -0.0125
- Bliss excess [12]: -0.011
- Bliss excess (D-263MG (Glioblastoma)): -0.0619
- Bliss excess [13]: -0.012
- Bliss excess (NB69 (Neuroblastoma)): -0.0206
- Bliss excess [14]: -0.026
- Bliss excess [15]: -0.0565

SMILES: COc1cccc(OCCCN)c1-c1cc(Nc2cnc(C#N)cn2)n[nH]1 [Prexasertib] + C[C@@H]1COCCN1C2=NC(=NC(=C2)C3(CC3)[S@](=N)(=O)C)C4=C5C=CNC5=NC=C4 [AZD6738] (first compound max 1 µM, 7x7, partner max 10 µM)
- Bliss excess (UACC-62 (Melanoma)): -0.0174
- Bliss excess [1]: -0.025
- Bliss excess [2]: -0.0449
- Bliss excess [3]: -0.0361
- Bliss excess [4]: -0.0315
- Bliss excess [5]: -0.0047
- Bliss excess [6]: -0.0514
- Bliss excess [7]: -0.0114
- Bliss excess (PWR-1E (Non-Cancerous)): 0.0243
- Bliss excess [8]: -0.105
- Bliss excess [9]: 0.0627
- Bliss excess [10]: 0.0054
- Bliss excess [11]: -0.057
- Bliss excess (EW-24 (Ewing's Sarcoma)): -0.0522
- Bliss excess [12]: -0.0109
- Bliss excess (D-263MG (Glioblastoma)): -0.019
- Bliss excess [13]: -0.0175
- Bliss excess (NB69 (Neuroblastoma)): -0.0228
- Bliss excess [14]: -0.0296
- Bliss excess [15]: -0.0396

SMILES: CCN(CCO)CCCOc1ccc2c(Nc3cc(CC(=O)Nc4cccc(F)c4)[nH]n3)ncnc2c1 [AZD2811] + C[C@@H]1COCCN1C2=NC(=NC(=C2)C3(CC3)[S@](=N)(=O)C)C4=C5C=CNC5=NC=C4 [AZD6738] (first compound max 1 µM, 7x7, partner max 10 µM)
- Bliss excess (UACC-62 (Melanoma)): -0.0338
- Bliss excess [1]: -0.0179
- Bliss excess [2]: -0.0263
- Bliss excess [3]: -0.0135
- Bliss excess [4]: -0.034
- Bliss excess [5]: -0.0849
- Bliss excess [6]: -0.0692
- Bliss excess [7]: -0.0217
- Bliss excess (PWR-1E (Non-Cancerous)): -0.0472
- Bliss excess [8]: -0.0797
- Bliss excess [9]: 0.0474
- Bliss excess [10]: 0.0066
- Bliss excess [11]: -0.0885
- Bliss excess (EW-24 (Ewing's Sarcoma)): -0.104
- Bliss excess [12]: -0.0354
- Bliss excess (D-263MG (Glioblastoma)): -0.0611
- Bliss excess [13]: -0.0434
- Bliss excess (NB69 (Neuroblastoma)): -0.0806
- Bliss excess [14]: -0.0478
- Bliss excess [15]: 0.0021

SMILES: CN(C)CCCOc1ccc(-c2ccc3ncc4c(c3c2)n(C2CCOCC2)c(=O)n4C)cn1 [AZD0156] + CCN(CCO)CCCOc1ccc2c(Nc3cc(CC(=O)Nc4cccc(F)c4)[nH]n3)ncnc2c1 [AZD2811] (first compound max 1 µM, 7x7, partner max 1 µM)
- Bliss excess (UACC-62 (Melanoma)): -0.0467
- Bliss excess [1]: -0.0148
- Bliss excess [2]: -0.0074
- Bliss excess [3]: 0.0053
- Bliss excess [4]: -0.0375
- Bliss excess [5]: -0.0825
- Bliss excess [6]: -0.0431
- Bliss excess [7]: 0.0248
- Bliss excess (PWR-1E (Non-Cancerous)): 0.0831
- Bliss excess [8]: 0.0369
- Bliss excess [9]: 0.0259
- Bliss excess [10]: -0.0028
- Bliss excess [11]: -0.0352
- Bliss excess (EW-24 (Ewing's Sarcoma)): 0.0199
- Bliss excess [12]: -0.0696
- Bliss excess (D-263MG (Glioblastoma)): -0.0339
- Bliss excess [13]: 0.0084
- Bliss excess (NB69 (Neuroblastoma)): -0.0815
- Bliss excess [14]: -0.0331
- Bliss excess [15]: 0.0174

SMILES: CN(C)CCCOc1ccc(-c2ccc3ncc4c(c3c2)n(C2CCOCC2)c(=O)n4C)cn1 [AZD0156] + C=CCn1c(=O)c2cnc(Nc3ccc(N4CCN(C)CC4)cc3)nc2n1-c1cccc(C(C)(C)O)n1 [AZD1775] (first compound max 1 µM, partner max 1 µM)
- Bliss excess (UACC-62 (Melanoma)): 0.0087
- Bliss excess [1]: -0.0368
- Bliss excess [2]: -0.0175
- Bliss excess [3]: 0.011
- Bliss excess [4]: -0.0231
- Bliss excess [5]: -0.095
- Bliss excess [6]: -0.0081
- Bliss excess [7]: -0.0235
- Bliss excess (PWR-1E (Non-Cancerous)): 0.0144
- Bliss excess [8]: -0.0303
- Bliss excess [9]: -0.0449
- Bliss excess [10]: -0.0986
- Bliss excess [11]: 0.0088
- Bliss excess (EW-24 (Ewing's Sarcoma)): -0.0804
- Bliss excess [12]: 0.0416
- Bliss excess (D-263MG (Glioblastoma)): -0.039
- Bliss excess [13]: -0.0093
- Bliss excess (NB69 (Neuroblastoma)): -0.0337
- Bliss excess [14]: -0.0295
- Bliss excess [15]: -0.0572

SMILES: COc1cccc(OCCCN)c1-c1cc(Nc2cnc(C#N)cn2)n[nH]1 [Prexasertib] + C=CCn1c(=O)c2cnc(Nc3ccc(N4CCN(C)CC4)cc3)nc2n1-c1cccc(C(C)(C)O)n1 [AZD1775] (first compound max 1 µM, partner max 1 µM)
- Bliss excess (UACC-62 (Melanoma)): -0.0118
- Bliss excess [1]: 0.0205
- Bliss excess [2]: 0.0337
- Bliss excess [3]: 0.047
- Bliss excess [4]: 0.0024
- Bliss excess [5]: 0.0061
- Bliss excess [6]: 0.0034
- Bliss excess [7]: 0.12
- Bliss excess (PWR-1E (Non-Cancerous)): 0.0706
- Bliss excess [8]: 0.143
- Bliss excess [9]: 0.0659
- Bliss excess [10]: 0.0433
- Bliss excess [11]: 0.108
- Bliss excess (EW-24 (Ewing's Sarcoma)): -0.1
- Bliss excess [12]: 0.0565
- Bliss excess (D-263MG (Glioblastoma)): 0.0378
- Bliss excess [13]: 0.0178
- Bliss excess (NB69 (Neuroblastoma)): 0.0657
- Bliss excess [14]: 0.025
- Bliss excess [15]: 0.0494

SMILES: Cc1c2c(nn1C)CSCc1cc(n(C)n1)CSc1cc(c3ccccc3c1)OCCCc1c(C(=O)O)n(C)c3c-2c(Cl)ccc13 [AZD5991] + C[C@@H](Nc1cc(F)cc(F)c1)c1cc(C(=O)N(C)C)cc2c(=O)cc(N3CCOCC3)oc12 [AZD8186] (first compound max 1 µM, 7x7, partner max 3 µM)
- Bliss excess (UACC-62 (Melanoma)): 0.036
- Bliss excess [1]: 0.0433
- Bliss excess [2]: 0.0655
- Bliss excess [3]: 0.0522
- Bliss excess [4]: -0.0002
- Bliss excess [5]: 0.0239
- Bliss excess [6]: 0.0282
- Bliss excess [7]: 0.0068
- Bliss excess (PWR-1E (Non-Cancerous)): -0.0134
- Bliss excess [8]: -0.0095
- Bliss excess [9]: 0.0293
- Bliss excess [10]: 0.0621
- Bliss excess [11]: 0.0246
- Bliss excess (EW-24 (Ewing's Sarcoma)): -0.0426
- Bliss excess [12]: 0.0072
- Bliss excess (D-263MG (Glioblastoma)): 0.0849
- Bliss excess [13]: -0.0401
- Bliss excess (NB69 (Neuroblastoma)): -0.0207
- Bliss excess [14]: -0.0123
- Bliss excess [15]: -0.0265
